Source: patent US20150202308A1, “BUDESONIDE FORMULATION” (Nephron Pharmaceuticals Corporation, priority 2014, published 2015)
Each block holds one compound with its values, some of them ahead of it.

Assays:
Assay type in all cases: physicochemical
[1] = Alternative beta-cyclodextrins for complexation with budesonide (% assay); conditions: for % Assay: budesonide inhalation solution 0.188 mg/mL
Protocol: (§1) Preparation of Lab Batches: Tared a clean/dry beaker+stir bar. Weighed and transferred Budesonide and cyclodextrin into the beaker and mixed dry to achieve uniform dispersion. Dissolved with a portion of stock buffer solution to create a saturated ionic phase and mixed for 5-20 minutes. Slowly diluted with the buffer solution and mixed for an additional 5-10 minutes. The pH of the solution was then adjusted with 1M citric acid or 1M NaOH and diluted to the final volume with purified water. While mixing, the solution was sparged with nitrogen for 30 minutes.
Alternative Beta-Cyclodextrins for Complexation: Laboratory batches of budesonide inhalation solution 0.188 mg/mL were prepared in buffer and water according to the procedure described above using 2-hydroxyethyl-B-cyclodextrin and Heptakis 2,6-Di-O-Methyl-B-cyclodextrin.

[2] = Preliminary proof of concept studies of the new complexation process
[3] = Filtration study of laboratory batches (assay before and after 0.22 μm filters); conditions: Budesonide with 2-hydroxypropyl-β-cyclodextrin, room temperature
Protocol: In this study 50 mL of 5 separate laboratory batches were filtered through PTFE, PVDF, and PES 0.22 μm filters. In the case that the complexation reaction was not completed, the filtration process would remove the un-complexed budesonide producing a significant difference between the assay values before and after filtration. For each of the lab batches tested, no significant difference between pre and post filter assay values was detected, indicating 100% complexation.

[4] = Complexation rate in buffer vs. water (filtered slurry, UV-Vis); conditions: excess Budesonide, 2 g 2-HY-B-CD in 12.5 mL concentrated buffer or water; FIG. 1
Protocol: To evaluate the initial association rate of Budesonide with 2-hydroxypropyl-beta-cyclodextrin, excess Budesonide was mixed with 2 g of 2-HY-B-CD in 12.5 mL of concentrated buffer solution or water. 1.0 mL of this slurry was filtered through a 0.2 syringe filter to remove un-complexed Budesonide and evaluated by UV-Vis at 2 minute intervals. A positive control prepared from filtered Budesonide Inhalation Suspension containing 0.25 mg/mL of Budesonide was used to ensure non-interference. […] This is consistent with the particle size distribution of the API which has a small percentage of Budesonide with <0.2 μm particle size diameter. This small amount of Budesonide was determined not to be significant enough to bias the results.

[5] = Minimum concentration of 2-hydroxypropyl-B-cyclodextrin for complexation (assay)
Protocol: Studies were conducted to determine the minimum concentration of 2-Hy-B-cyclodextrin required to achieve 100% budesonide complexation. […] To evaluate if a lower concentration may be used a study was conducted to evaluate if 100% complexation was possible at between 0.5% and 3.0% cyclodextrin. • Complexation efficiency in buffer vs. water: Traditional methods of complexation are usually carried out in water. We conducted studies to evaluate the efficiency of Budesonide-cyclodextrin complexation using a complexation solution of high ionic strength and using purified water. • Alternative Salts or Complexation: The ionic strength of the Buffer solution was calculated to be approximately 508 mol/m^−3. Two alternative salts, Sodium Chloride and Potassium Chloride, and a Phosphate buffer were prepared at the same ionic strength. Laboratory batches of budesonide inhalation solution were prepared using each alternative ionic adjuster to evaluate the effects of various salts on the formulation process. • Alternative Beta-Cyclodextrins for Complexation: […] additional Beta Cyclodextrins, 2-hydroxyethyl-B-cyclodextrin and Heptakis 2,6-Di-O-Methyl-B-cyclodextrin, were evaluated as potential alternatives for complexation with Budesonide.
as §1
Laboratory batches of budesonide inhalation Solution 0.188 mg/mL were prepared to determine the minimum concentration of 2-Hydroxypropyl-B-cyclodextrin required for an effective formulation. Each laboratory batch was prepared as per the procedure described above.

[6] = Complexation efficiency of budesonide with 2-HY-B-cyclodextrin in buffer vs. water (end point % assay); conditions: for % Assay at T = min. (amount of Budesonide complexed): 3% 2-HY-B-Cyclodextrin; for time to reach 100% complexation: determined from the data
Protocol: as §1
An end point analysis was conducted to evaluate the efficiency of the formulation procedure. Laboratory batches of Budesonide Inhalation Solution were prepared in 3% 2-HY-B-Cyclodextrin and assayed to evaluate the efficiency of the formulation procedure. During the second study, the rate of complexation between Budesonide and 2-HY-B-Cyclodextrin was evaluated in both Buffer and Water.
Six laboratory batches of Budesonide Inhalation Solution were prepared as described above, 3 each in buffer and water. The amount of Budesonide complexed was evaluated at 5 minutes, 8 minutes and 12 minutes for each solvent and compared to the expected concentration at the 100% level.

[7] = EDTA and gamma-cyclodextrin effects on formulation stability; conditions: for effect on formulation stability / effect of varying the amount on stability: 90 days at 40° C.; for effect of varying the amount on stability: varied beginning at 0.05%
Protocol: A study was designed to evaluate the effects of EDTA and γ-CD on the formulation stability. Both γ-CD and EDTA were varied beginning at 0.05% and tested at 30 day intervals for 90 days stored at 40° C.

[8] = budesonide at 0.188 mg/mL, in buffer

% Assay ([1]; 3% cyclodextrin): 66.7%
% Assay ([1]; 6% cyclodextrin): 90.3%
% Assay ([1]; 8% cyclodextrin): 96.4%
efficiency of complexation possible ([1]; within the proposed range of cyclodextrin (3%-8%)): 100%
Compound: 2-Hydroxyethyl-B-cyclodextrin

percent of HP-β-CD required [2]: < 10%
Compound: 2-Hydroxypropyl-β-cyclodextrin [HP-β-CD]

efficiency of complexation with available budesonide [1, 8]: 100%
time to 100% efficiency of complexation [1, 8]: 3 to 5 min
% Assay ([1]; 3% cyclodextrin): 101.9%
Compound: COCC1OC2OC3C(COC)OC(OC4C(COC)OC(OC5C(COC)OC(OC6C(COC)OC(OC7C(COC)OC(OC8C(COC)OC(OC1C(O)C2OC)C(OC)C8O)C(OC)C7O)C(OC)C6O)C(OC)C5O)C(OC)C4O)C(OC)C3O (stereo not drawn) [2,6-di-o-mehtyl, Heptakis 2,6-Di-O-Methyl-B-cyclodextrin]

time to virtually 100% complexation efficiency [3]: less than 10 minutes
complexation efficiency ([3]; no organic solvents): ~100%
rate of complexation with 2-hydoxypropyl-B-cyclodextrin [4]: much higher rate in buffer than in water
minimum desirable concentration of cyclodextrin to meet the USP monograph [5]: ≥ 3.0%
Assay ([5]; 0.188 mg/mL, 0.5% cyclodextrin, molar ratio 8.4): 75.9%
Assay ([5]; 0.188 mg/mL, 1.0% cyclodextrin, molar ratio 16.8): 85.9%
Assay ([5]; 0.188 mg/mL, 1.5% cyclodextrin, molar ratio 25.2): 91.5%
Assay ([5]; 0.188 mg/mL, 2.0% cyclodextrin, molar ratio 33.6): 95.5%
Assay ([5]; 0.188 mg/mL, 2.5% cyclodextrin, molar ratio 41.9): 95.7%
complexation of Budesonide ([5]; 3.0% 2-Hydroxypropyl-B-cyclodextrin, molar ratio 50.33): 100%
complexation of Budesonide ([5]; 4% (w/v) beta-cyclodextrin, Budesonide at 0.188 mg/mL, stable): 100%
ratio of epimer A (of total content) ([5]; below 3.0% Beta-cyclodextrin, USP criterion 40%-51%): exceeded 51%
Assay ([5]; budesonide inhalation solution 0.188 mg/mL, 3.0% 2-Hydroxypropyl-B-cyclodextrin, molar ratio CD:Budesonide 50.3): 99.4%
% Assay at T = min. (amount of Budesonide complexed) ([6]; solvent Buffer, 5 minutes, vs expected concentration at 100% level): 91.1%
% Assay at T = min. (amount of Budesonide complexed) ([6]; solvent Buffer, 8 minutes): 96.3%
% Assay at T = min. (amount of Budesonide complexed) ([6]; solvent Buffer, 12 minutes): 99.7%
% Assay at T = min. (amount of Budesonide complexed) ([6]; solvent Water, 5 minutes): 71.9%
% Assay at T = min. (amount of Budesonide complexed) ([6]; solvent Water, 8 minutes): 78.1%
% Assay at T = min. (amount of Budesonide complexed) ([6]; solvent Water, 12 minutes): 89.7%
increase in the initial complexation efficiency ([6]; batches in concentrated buffer solution over those prepared in water): ~22%
increase in efficiency ([6]; buffer vs. water, from times to 100% complexation): 180%
time to reach 100% complexation ([6]; in buffer): approximately 9 minutes
time to reach 100% complexation ([6]; in water): ~16.2 min
Compound: CCCC1O[C@@H]2C[C@H]3[C@@H]4CCC5=CC(=O)C=C[C@]5(C)[C@H]4[C@@H](O)C[C@]3(C)[C@]2(C(=O)CO)O1 (stereo partly drawn) [Budesonide, 16,17-(butylidenebis(oxy))-11,21-dihydroxy-, (11-β,16-α)-pregna-1,4-diene-3,20-dione]

effect on formulation stability [7]: positive effect on stability
effect on growth of impurity D ([7]; previous studies): helps control the growth of impurity D
effect of varying the amount on stability [7]: no significant effects
Compound: O=C(O)CN(CCN(CC(=O)O)CC(=O)O)CC(=O)O [EDTA]

effect on formulation stability [7]: positive effect on stability
effect of varying the amount on stability [7]: no significant effects
Compound: OC[C@H]1O[C@@H]2O[C@H]3[C@H](O)[C@@H](O)[C@@H](O[C@H]4[C@H](O)[C@@H](O)[C@@H](O[C@H]5[C@H](O)[C@@H](O)[C@@H](O[C@H]6[C@H](O)[C@@H](O)[C@@H](O[C@H]7[C@H](O)[C@@H](O)[C@@H](O[C@H]8[C@H](O)[C@@H](O)[C@@H](O[C@H]9[C@H](O)[C@@H](O)[C@@H](O[C@H]1[C@H](O)[C@H]2O)O[C@@H]9CO)O[C@@H]8CO)O[C@@H]7CO)O[C@@H]6CO)O[C@@H]5CO)O[C@@H]4CO)O[C@@H]3CO [γ-CD, Gamma-cyclodextrin]
